Results on 19 compounds are retold here after patent publication US9353082B2, “Pharmaceutical compounds” (BIAL—PORTELA & CA, S.A., priority 2008, dated 2016).

For assay [1], the target named is T1, FAAH (Mus musculus, UniProt O08914).
T1 construct: A fragment of liver, left lung lobe and brain without cerebellum were removed; from tissue; host or cells: male NMRI mice; brain (without cerebellum) and liver homogenates
T1 sequence (O08914 1-579): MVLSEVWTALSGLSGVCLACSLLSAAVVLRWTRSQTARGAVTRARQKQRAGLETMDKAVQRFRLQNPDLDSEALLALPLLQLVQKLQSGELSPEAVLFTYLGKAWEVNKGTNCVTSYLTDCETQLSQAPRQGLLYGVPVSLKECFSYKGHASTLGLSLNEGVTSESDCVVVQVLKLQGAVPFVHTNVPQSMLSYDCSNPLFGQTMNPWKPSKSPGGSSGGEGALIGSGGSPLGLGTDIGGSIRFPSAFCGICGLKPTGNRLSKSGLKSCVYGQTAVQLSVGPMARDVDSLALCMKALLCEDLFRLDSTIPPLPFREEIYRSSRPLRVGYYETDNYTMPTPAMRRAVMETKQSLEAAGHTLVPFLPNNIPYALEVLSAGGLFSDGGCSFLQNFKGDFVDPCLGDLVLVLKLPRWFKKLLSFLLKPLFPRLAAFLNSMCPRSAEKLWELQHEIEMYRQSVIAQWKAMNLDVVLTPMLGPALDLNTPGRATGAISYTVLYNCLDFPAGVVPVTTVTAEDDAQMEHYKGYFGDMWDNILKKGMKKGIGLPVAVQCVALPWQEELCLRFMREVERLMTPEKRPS
As to the kind of experiment: In vivo FAAH inhibition after oral dosing, remaining activity in brain homogenate (BRh, central nervous tissue). Also on record: species or system NMRI mice. The following applies: brain homogenate, low value = strong inhibitor; for In Vivo BRh 3 mg·kg 8 h (remaining FAAH activity, % of control): 8 h after dosing; for In Vivo BRh 3 mg · kg · 8 h (remaining FAAH activity): 3 mg/kg oral. On the procedure:
(§1) The in vivo test was performed according to the protocol described below. BRh indicates inhibition in central nervous tissue and LVh indicates inhibition in peripheral tissue, in this case liver.
(§2) The animals used for experiments were male NMRI mice (weighing 27-44 g) obtained from Interfauna Ibérica (Spain). Mice were kept 5 per cage, under controlled environmental conditions (12 hr light/dark cycle and room temperature 22±1° C.). Food and tap water were allowed ad libitum and the experiments were all carried out during daylight hours.
(§3) Animals were administered 30 mg/kg or 3 mg/kg compounds of the invention via oral route (8 ml/kg; compound suspended in 0.5% carboxymethylcellulose (CMC) or solubilized in water) or vehicle (controls) using animal feeding stainless steel curve needles (Perfectum, U.S.A.). Fifteen minutes before sacrifice animal were anesthetized with pentobarbital 60 mg/kg administered intraperitoneally. A fragment of liver, left lung lobe and brain without cerebellum were removed and put in plastic vials containing membrane buffer (3 mM MgCl2, 1 mM EDTA, 50 mM Tris HCl pH 7.4). Tissues were stored at −30° C. until analysis.
(§4) Animals were always fasted overnight before administration of compounds except for time points of >18 h, where food was removed on the morning of day of administration and the compound was administered in the afternoon of the same day. Animals were then given water but nothing else.
(§5) Tissues were thawed on ice and were homogenized in 10 volumes of membrane buffer (3 mM MgCl2, 1 mM EDTA, 50 mM Tris HCl pH 7.4) with either Potter-Elvejhem (brains—8 strokes at 500 rpm) or Heidolph Diax (livers—2 strokes at position 5 for 20 sec with 30 sec pauses).
(§6) Total protein in tissues was determined with the BioRad Protein Assay (BioRad) using a standard curve of BSA (50-250 μg/ml).
(§7) Reaction mix (total volume of 200 μl) contained: […] (2 μM AEA+5 nM ^3H-AEA), 0.1% fatty acid free BSA, 15 μg (brain), 5 μg (liver) or 50 μg (lung) protein, in 1 mM EDTA, 10 mM Tris pH 7.6. After a […] pre-incubation period at 37° C., reaction was started by the addition of the substrate solution (cold AEA+radiolabelled AEA+BSA). Reaction was carried out for 10 min (brain and lung) or […] (liver) before termination by the addition of 400 μl activated charcoal suspension (8 g charcoal in 32 ml 0.5 M HCl in continuous agitation). After a […] incubation period at room temperature with agitation, charcoal was sedimented by centrifugation in microfuge (10 min at 13000 rpm). 200 μl of the supernatant were added to 800 μl Optiphase Supermix scintillation cocktail previously distributed in 24-well plates. Counts per minute (cpm) were determined in a MicrobetaTriLux scintillation counter.
(§8) In each assay blanks (without protein) were prepared.
(§9) The percentage of remaining enzymatic activity was calculated in respect to controls and after blank subtraction.

The target of assay [2] is T1, FAAH. As to the kind of experiment: In vivo FAAH inhibition after oral dosing, remaining activity in liver homogenate (LVh, peripheral tissue). More on the design: species or system NMRI mice. The conditions noted are these: liver homogenate, low value = strong inhibitor; for In Vivo LVh 3 mg·kg 8 h (remaining FAAH activity, % of control): 8 h after dosing; for In Vivo LVh 3 mg · kg · 8 h (remaining FAAH activity): 3 mg/kg oral. On the procedure:
as §1, §2, §3, §4, §5, §6, §7, §8, §9

The structures appear in SMILES notation.

As to `CN(C(=O)n1cnc(-c2cccc(-c3ccccc3)c2)c1)C12CC3CC(CC(C3)C1)C2` [Compound 290, 4-biphenyl-3-yl-N-methyl-N-tricyclo[3.3.1.13,7]dec-1-yl-1H-imidazole-1-carboxamide], the “In Vivo BRh 3 mg·kg 8 h (remaining FAAH activity, % of control)” value at FAAH [1] was 115 % of control. Further, the “In Vivo LVh 3 mg·kg 8 h (remaining FAAH activity, % of control)” value on FAAH [2] is listed as 112.4 % of control.
Turning to `COc1ccc2nnn(C(=O)N3COCC3(C)C)c2c1` [Compound 293, (4,4-dimethyloxazolidin-3-yl)(6-methoxy-1H-benzo[d][1,2,3]triazol-1-yl)methanone], the “In Vivo BRh 3 mg·kg 8 h (remaining FAAH activity, % of control)” value at FAAH [1] was 3.5 % of control. For the same compound, the “In Vivo LVh 3 mg·kg 8 h (remaining FAAH activity, % of control)” value at FAAH [2] was 1.7 % of control.
Consider `CN(C(=O)n1cnc(-c2ccc(O)cc2)c1)C1CCCC1` [Compound 294, N-cyclopentyl-4-(4-hydroxyphenyl)-N-methyl-1H-imidazole-1-carboxamide], for which the “In Vivo BRh 3 mg·kg 8 h (remaining FAAH activity, % of control)” value on FAAH [1] is on record as 1.4 % of control. In addition, the “In Vivo LVh 3 mg·kg 8 h (remaining FAAH activity, % of control)” value at FAAH [2] is reported as 1.4 % of control.
As for `CC1(C)OC(c2ccccc2)CN1C(=O)n1cnc(-c2ccccc2)c1` (centres unmarked) [Compound 298, (2,2-dimethyl-5-phenyloxazolidin-3-yl)(4-phenyl-1H-imidazol-1-yl)methanone], the “In Vivo BRh 3 mg·kg 8 h (remaining FAAH activity, % of control)” value at FAAH [1] is on record as 74.4 % of control. The “In Vivo LVh 3 mg·kg 8 h (remaining FAAH activity, % of control)” value on FAAH [2] is given as 59.2 % of control.
Turning to `COc1cc(-c2cn(C(=O)N(C)C3CCCC3)cn2)ccc1F` [Compound 321, N-cyclopentyl-4-(4-fluoro-3-methoxyphenyl)-N-methyl-1H-imidazole-1-carboxamide], at FAAH [1], the “In Vivo BRh 3 mg·kg 8 h (remaining FAAH activity, % of control)” value is listed as 1.4 % of control. Further, at FAAH [2], the “In Vivo LVh 3 mg·kg 8 h (remaining FAAH activity, % of control)” value is reported as 1.2 % of control.
With `CN(C(=O)n1cnc(-c2cccc(-c3cccc(C(N)=O)c3)c2)c1)C1CCN(Cc2ccccc2)CC1` [Compound 550, N-(1-benzylpiperidin-4-yl)-4-(3′-carbamoylbiphenyl-3-yl)-N-methyl-1H-imidazole-1-carboxamide], the “In Vivo BRh 3 mg · kg · 8 h (remaining FAAH activity)” value on FAAH [1] is on record as 94.3 % of control. In addition, at FAAH [2], the “In Vivo LVh 3 mg · kg · 8 h (remaining FAAH activity)” value is listed as 5.7 % of control.
With `CN(C(=O)n1cnc(-c2ccc(-c3noc(=O)[nH]3)cc2)c1)C1CCCCC1` [Compound 551, N-cyclohexyl-N-methyl-4-(4-(5-oxo-4,5-dihydro-1,2,4-oxadiazol-3-yl)phenyl)-1H-imidazole-1-carboxamide], on FAAH [1], the “In Vivo BRh 3 mg · kg · 8 h (remaining FAAH activity)” value is on record as 85.2 % of control. Besides, on FAAH [2], the “In Vivo LVh 3 mg · kg · 8 h (remaining FAAH activity)” value is 3.8 % of control.
Taken in the same sequence, the figures for `CCCN1CCC(N(C)C(=O)n2cnc(-c3cccc(C(=O)NO)c3)c2)CC1` [Compound 552, 4-(3-(hydroxycarbamoyl)phenyl)-N-methyl-N-(1-propylpiperidin-4-yl)-1H-imidazole-1-carboxamide] were 90.2 % of control and 45 % of control.
For the compound `CN(C(=O)n1cnc(-c2cccc(NC(=N)N)c2)c1)C1CCCCC1.Cl` [Compound 553, N-cyclohexyl-4-(3-guanidinophenyl)-N-methyl-1H-imidazole-1-carboxamide hydrochloride], at FAAH [1], the “In Vivo BRh 3 mg · kg · 8 h (remaining FAAH activity)” value was 72.3 % of control. For the same compound, the “In Vivo LVh 3 mg · kg · 8 h (remaining FAAH activity)” value at FAAH [2] was 15.4 % of control.
Taken in the same sequence, the figures for `CCCN1CCC(N(C)C(=O)n2cnc(-c3ccc(O)c(C(N)=O)c3)c2)CC1` [Compound 554, 4-(3-carbamoyl-4-hydroxyphenyl)-N-methyl-N-(1-propylpiperidin-4-yl)-1H-imidazole-1-carboxamide] were 102.2 % of control and 85.6 % of control.
As for `CN(C(=O)n1cnc(-c2cccnc2)c1)C1CCN(CC(=O)O)CC1` [Compound 558, 2-(4-(N-methyl-4-(pyridin-3-yl)-1H-imidazole-1-carboxamido)piperidin-1-yl)acetic acid], the “In Vivo BRh 3 mg · kg · 8 h (remaining FAAH activity)” value on FAAH [1] was 83.1 % of control. Further, on FAAH [2], the “In Vivo LVh 3 mg · kg · 8 h (remaining FAAH activity)” value is on record as 91.1 % of control.
Turning to `Br.CCN1CCC(N(C)C(=O)n2cnc(-c3ccc(F)c(O)c3)c2)CC1` [Compound 561, N-(1-ethylpiperidin-4-yl)-4-(4-fluoro-3-hydroxyphenyl)-N-methyl-1H-imidazole-1-carboxamide hydrobromide], the “In Vivo BRh 3 mg · kg · 8 h (remaining FAAH activity)” value at FAAH [1] was 82.2 % of control. The “In Vivo LVh 3 mg · kg · 8 h (remaining FAAH activity)” value on FAAH [2] was 78.6 % of control.
In the case of `CN(C(=O)n1cnc(-c2cccc(C(=O)NO)c2)c1)[C@H]1CC[C@H](O)CC1` [Compound 566, 4-(3-(hydroxycarbamoyl)phenyl)-N-((1r,4r)-4-hydroxycyclohexyl)-N-methyl-1H-imidazole-1-carboxamide], the “In Vivo BRh 3 mg · kg · 8 h (remaining FAAH activity)” value on FAAH [1] was 88.5 % of control. The “In Vivo LVh 3 mg · kg · 8 h (remaining FAAH activity)” value on FAAH [2] is 69.8 % of control.
In the case of `COc1ccc(-c2cn(C(=O)N3COCC3(C)C)cn2)cc1N` [Compound no. 356, (4-(3-amino-4-methoxyphenyl)-1H-imidazol-1-yl)(4,4-dimethyloxazolidin-3-yl)methanone], on FAAH [1], the “In Vivo BRh 3 mg·kg 8 h (remaining FAAH activity, % of control)” value is reported as 6.5 % of control. Moreover, the “In Vivo LVh 3 mg·kg 8 h (remaining FAAH activity, % of control)” value at FAAH [2] is recorded as 9.4 % of control.
`CC1(C)COCN1C(=O)n1cnc(-c2ccc(O)c(N)c2)c1.Cl` [Compound no. 358, (4-(3-amino-4-hydroxyphenyl)-1H-imidazol-1-yl)(4,4-dimethyloxazolidin-3-yl)methanone hydrochloride]: the “In Vivo BRh 3 mg·kg 8 h (remaining FAAH activity, % of control)” value at FAAH [1] is 117.1 % of control. For the same compound, the “In Vivo LVh 3 mg·kg 8 h (remaining FAAH activity, % of control)” value on FAAH [2] was 81.2 % of control.
For `CC1(C)COCN1C(=O)n1nnc2cccnc21` [Compound no. 368, (3H-[1,2,3]triazolo[4,5-b]pyridin-3-yl)(4,4-dimethyloxazolidin-3-yl)methanone], on FAAH [1], the “In Vivo BRh 3 mg·kg 8 h (remaining FAAH activity, % of control)” value is reported as 4.9 % of control. The “In Vivo LVh 3 mg·kg 8 h (remaining FAAH activity, % of control)” value on FAAH [2] is 9.6 % of control.
With `CN(C(=O)n1cnc(-c2ccc(S(N)(=O)=O)cc2)c1)C1CCCCC1` [Compound no. 376, N-cyclohexyl-N-methyl-4-(4-sulfamoylphenyl)-1H-imidazole-1-carboxamide], on FAAH [1], the “In Vivo BRh 3 mg·kg 8 h (remaining FAAH activity, % of control)” value is 95.3 % of control. Further, the “In Vivo LVh 3 mg·kg 8 h (remaining FAAH activity, % of control)” value at FAAH [2] is on record as 5.7 % of control.
As for `CN(C(=O)n1cnc(-c2ccc(-c3nn[nH]n3)cc2)c1)C1CCCCC1` [Compound no. 380, 4-(4-(2H-tetrazol-5-yl)phenyl)-N-cyclohexyl-N-methyl-1H-imidazole-1-carboxamide], at FAAH [1], the “In Vivo BRh 3 mg·kg 8 h (remaining FAAH activity, % of control)” value is reported as 77.3 % of control. Also, the “In Vivo LVh 3 mg·kg 8 h (remaining FAAH activity, % of control)” value at FAAH [2] was 51.3 % of control.
`CN(C(=O)n1cnc(-c2ccc(/C(N)=N/O)cc2)c1)C1CCCCC1` [Compound no. 406, (Z)—N-cyclohexyl-4-(4-(N′-hydroxycarbamimidoyl)phenyl)-N-methyl-1H-imidazole-1-carboxamide]: the “In Vivo BRh 3 mg·kg 8 h (remaining FAAH activity, % of control)” value at FAAH [1] is on record as 66.8 % of control. The “In Vivo LVh 3 mg·kg 8 h (remaining FAAH activity, % of control)” value on FAAH [2] is given as 16.3 % of control.
